Here are results for one molecule from patent publication US7419778B2, “Method for high throughput cell-based assays using versatile living microarrays” (PameGene B.V., priority 2002, dated 2008).

The subject of this assay is E. coli XL2 Blue MRF′. In words: Sensitivity of E. coli to kanamycin in agar plugs on flow-through (Pam) substrate, zone of clearing. Particulars: 12 hours at 37° C. The class given is cell-based. On the procedure:
[…] The porous nature of the substrate draws the molten agar into the pores by capillary action. These treated substrates were then overlaid with 10^6 cfu/ml E. coli XL2 MRF′ cells containing plasmid pUC18 that had been grown in 2TY broth with 100 μg/ml ampicillin and placed on 2TY plates with the same concentration of ampicillin. Plates were then incubated for 12 hours at 37° C.

Molecules are shown by their SMILES.

For `NC[C@H]1O[C@H](O[C@H]2[C@H](O)[C@@H](O[C@H]3O[C@H](CO)[C@@H](O)[C@H](N)[C@H]3O)[C@H](N)C[C@@H]2N)[C@H](O)[C@@H](O)[C@@H]1O` [Kanamycin, kanamycin], the “Zone of clearing (diameter mm)” value (10 ng kanamycin, N=12) stood at 0.4 mm; the “Zone of clearing (diameter mm)” value (100 ng kanamycin, N=16) is 2.1 mm; the “Zone of clearing (diameter mm)” value (1000 ng kanamycin, N=12) was 3.5 mm.
